Data on three molecules can be found in patent EP1146866B1, “A METHOD FOR TREATING PATIENTS WITH ACNE BY ADMINISTERING A CYCLIC GMP PDE INHIBITOR” (priority 1999, dated 2000).

For one data set, the target named is PDE5 (Homo sapiens, UniProt O76074). Description: cGMP-specific PDE inhibition activity (3H cyclic GMP substrate). It counts as biochemical. The protocol: (§1) cGMP-specific phosphodiesterase activity can be determined using methods known in the art, such as a method using radioactive ^3H cyclic GMP (cyclic 3',5'-guanosine monophosphate) as the substrate for PDE5 enzyme (Thompson, W.J., Teraski, W.L., Epstein, P.M., Strada, S.J., Advances in Cyclic Nucleotide Research, 10:69-92, 1979. Using such techniques, the values of cGMP-specific inhibition set forth in Table 1 were determined for the compounds above: TABLE 1

Data set [1] is described as follows: Clinical studies of exisulind for uses other than acne (tolerability). Type of data set: in vivo. The protocol: In studies with adult patients, patients with intact colons received exisulind at a dosage of 400 mg/day, and patients who had previously undergone a colectomy received exisulind at a dosage of 600 mg/day. In another study with adult patients, the patients received 500 mg/day of exisulind. In a study involving pediatric patients, the dosage of exisulind used ranged from 250 to 350 mg per day.
In these studies, exisulind is generally well tolerated in patients. […] The maximum tolerated dose (MTD) was determined to be 600 mg/day in patients with colectomies, and 400 mg/day in the group with intact colons. […] These elevations were completely reversible on stopping the drug. Additionally, after a patient with elevated liver enzymes stops receiving the drug for approximately one week, the patient can then safely resume treatment at the same or a lower therapeutic dose, i.e. the dosages mentioned above. The elevations seem to be dose related and have been seen mostly at doses above the maximum tolerated dose. […] Thirteen of those patients received exisulind for over three years.

The next data set has as its system acne vulgaris. Description: Clinical results with a patient with acne vulgaris. It counts as in vivo, human. The protocol: A patient with acne vulgaris was given a pharmaceutical composition containing 125 mg of a cGMP-specific PDE inhibitor, exisulind (the compound of Example 1), twice daily for 8 weeks. […] Since the patient was tolerating that daily dose quite well, their dose of exisulind was increased to 150 mg twice daily, for an additional 8 weeks.
The pharmaceutical formulation for the 150 mg-containing pharmaceutical composition taken by this patient contained exisulind (150 mg), lactose monohydrate (207 mg), croscarmellose sodium (15 mg), colloidal silicon dioxide (1 mg), magnesium stearate (6.3 mg), and sodium lauryl sulfate (0.7 mg) encapsulated in a # 1 gelatin capsule. The exisulind was obtained from Zambon Group, S.p.A., of Milan, Italy. The pharmaceutical formulation for the 125 mg containing composition was formulated with less exisulind, and more excipients to fill the capsule.

Another data set has as its target PDE2 (Homo sapiens, UniProt O00408). Description: cGMP-stimulated PDE inhibition activity. It counts as biochemical. The protocol:
as §1
cGMP phosphodiesterase activity can be determined using the methods referenced in Example 5, above. Using such techniques, the IC50 value for the inhibition of PDE2 by the compound of Example 1, exisulind, was determined as shown in Table 2.

Sequence of PDE2 (O00408 whole entry): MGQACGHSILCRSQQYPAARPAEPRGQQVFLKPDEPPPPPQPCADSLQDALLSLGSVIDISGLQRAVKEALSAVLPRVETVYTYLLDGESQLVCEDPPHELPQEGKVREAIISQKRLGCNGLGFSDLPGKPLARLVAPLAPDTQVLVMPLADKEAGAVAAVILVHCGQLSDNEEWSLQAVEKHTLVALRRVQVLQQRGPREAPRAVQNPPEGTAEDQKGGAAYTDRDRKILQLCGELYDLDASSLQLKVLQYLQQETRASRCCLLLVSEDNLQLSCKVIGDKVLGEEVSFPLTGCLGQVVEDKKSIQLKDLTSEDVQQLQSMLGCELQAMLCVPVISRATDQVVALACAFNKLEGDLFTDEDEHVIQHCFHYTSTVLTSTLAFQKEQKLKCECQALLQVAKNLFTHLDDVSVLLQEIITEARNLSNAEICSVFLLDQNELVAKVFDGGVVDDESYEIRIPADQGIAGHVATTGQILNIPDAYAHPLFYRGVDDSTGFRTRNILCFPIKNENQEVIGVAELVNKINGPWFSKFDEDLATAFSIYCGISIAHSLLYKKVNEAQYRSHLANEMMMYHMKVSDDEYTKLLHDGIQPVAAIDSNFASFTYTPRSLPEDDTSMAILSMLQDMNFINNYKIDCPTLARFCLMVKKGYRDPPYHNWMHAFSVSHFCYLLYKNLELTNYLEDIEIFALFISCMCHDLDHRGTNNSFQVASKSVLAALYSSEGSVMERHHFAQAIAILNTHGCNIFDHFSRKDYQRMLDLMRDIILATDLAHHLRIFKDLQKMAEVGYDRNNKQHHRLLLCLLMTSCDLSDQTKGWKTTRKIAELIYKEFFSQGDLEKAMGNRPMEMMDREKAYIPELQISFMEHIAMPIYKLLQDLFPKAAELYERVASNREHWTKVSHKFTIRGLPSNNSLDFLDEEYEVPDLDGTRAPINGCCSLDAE

For the molecule `CC1=C(CC(=O)O)c2cc(F)ccc2/C1=C\c1ccc(S(C)(=O)=O)cc1` [Example 1, α-(1-p-Methylsulfonylbenzylidene)-2-Methyl-5-Fluoro-3-Indenyl-Acetic Acid], the inhibition (as a rule, the percentage by which the read-out fell short of the control) at 10 µM on PDE5 is 39%. Besides, the “maximum tolerated dose (MTD)” value in data set [1] (group with intact colons) is recorded as 400 mg/day. In data set [1] (human, in vivo), the liver function tests result is “moderate, reversible, asymptomatic elevation in liver function tests”; the “side effects in clinical studies” value is “no clinically relevant side effects reported”; the “side effects on extended treatment” value is “no such clinically significant side effects”. For the same molecule, in data set [1] (patients with colectomies), the “maximum tolerated dose (MTD)” value is given as 600 mg/day. For the same molecule, the “patient's acne” value in the data set with acne vulgaris (150 mg twice daily for an additional 8 weeks, end of second 8-week period) is given as “disappeared completely”. Further, the “adverse side effects reported by patient” value in the data set on acne vulgaris (after 125 mg then 150 mg twice daily, 8 weeks each) is “no adverse side effects”. In addition, in the data set with acne vulgaris (continued on drug for six months), the “manifestations of acne during continued treatment” value is “without any significant manifestations of acne”. The “patient's acne (intensity)” value in the data set on acne vulgaris (patient, 125 mg twice daily for 8 weeks) is reported as “decrease noticeably in intensity”. In addition, the midpoint of inhibition at PDE2, the IC50, lay at 300 µM.

On PDE5, `COC(=O)CC1=C(C)/C(=C/c2ccc(S(C)(=O)=O)cc2)c2ccc(F)cc21` [Example 2, α-(1-p-Methylsulfonylbenzylidene)-2-Methyl-5-Fluoro-3-Indenyl -Acetic Acid Methyl Ester] came in with an inhibition at 10 µM of 50%.

With `CC1=C(CCO)c2cc(F)ccc2/C1=C\c1ccc(S(C)(=O)=O)cc1` [Example 3, (Z)-5-Fluoro-2-Methyl-1-(4-Methylsulfonylbenzylidene)-1H-3-Indenyl-(2-Hydroxy) Ethane], testing at 10 µM at PDE5 gave an inhibition of 80%.
